For seven molecules, EC50 results are on record in patent publication US10335409B2 (priority 2012, dated 2019).

Read-outs that look alike come from different tables or passages of the source.

Holding throughout (format): cell-based, hepatitis C virus
For test [1], the system named is genotype 1a NS3/4a protease inhibitor resistant variant R155K transient HCV replicon in Huh-7-derived cells. In words: Transient-transfected HCV replicon EC50, genotype 1a R155K. To be noted: Hepatitis C virus, 72 h, read-out: EC50 1A R155K, transient-transfected replicon genotype 1a R155K resistant variant, 72 h. Background: In antiviral work, replicon cells carry a viral genome segment that copies itself.

Test [2] concerns genotype 1b (Con1) stable HCV replicon in Huh-7-derived cells. In words: Stable subgenomic HCV replicon EC50, genotype 1b (Renilla luciferase). To be noted: Hepatitis C virus, stable replicon genotype 1b, 72 h, read-out: EC50 1B RLUC. As to the method:
(§1) Antiviral potency (EC50) was determined in both stable subgenomic HCV replicon cell lines and transient-transfected HCV replicon cells. The term half maximal effective concentration (EC50) refers to the concentration of a drug which induces a response halfway between the baseline and maximum after the exposure time specified below.
(§2) Stable subgenomic HCV replicons for genotype 1a, 1b, 2a, 3a, and 4a were established in Huh-7-derived cells as described by Lohmann et al (Lohmann V, Korner F, Koch J, et al Replication of subgenomic hepatitis C virus RNAs in a hepatoma cell line. Science 1999; 285:119-3) Each stable cell line contains a bicistronic HCV replicon that encodes a humanized Renilla luciferase (hRLuc) reporter gene fused to a selectable neomycin-resistance gene, followed by an EMCV IRES and the NS3-NS5B coding region of HCV. […] Luciferase activity was measured as a marker for intracellular HCV replication levels.
(§3) The genotype 1a stable replicon was derived from the H77 HCV strain and contained adaptive mutations P1496L and S2204I. The genotype 1b stable replicon was derived from the Con1 HCV strain and contained adaptive mutations E1202G, T1280I and K1846T. […] The genotype 3a stable replicon was derived from the S52 HCV strain and contained adaptive mutations P1121L, A1198T and S2210I (equivalent to S2204I in genotype 1). The genotype 4a stable replicon was derived from the ED43 HCV strain and contained adaptive mutations Q1691R and S2204I. All replicon cell lines were propagated in Huh-7-derived cells and maintained in Dulbecco's modified Eagle's Medium (DMEM) supplemented with 10% fetal bovine serum (FBS) and 0.5 mg/mL G418.
(§4) To perform EC50 assays, cells from each HCV replicon were dispensed into 384-well plates. Compounds were dissolved in DMSO at a concentration of 10 mM and diluted in DMSO using an automated pipetting instrument. Three-fold serially diluted compounds were directly added to the cells using an automated instrument. […] Seventy-two hours later, cells were lysed and Renilla luciferase activity were quantified as recommended by the manufacturer (Promega-Madison, Wis.). Non-linear regression was performed to calculate EC50 values.

The subject of test [3] is genotype 1a (H77) stable HCV replicon in Huh-7-derived cells. Description: Stable subgenomic HCV replicon EC50, genotype 1a (Renilla luciferase). To be noted: Hepatitis C virus, stable replicon genotype 1a, 72 h, read-out: EC50 1A RLUC. The procedure:
as §1, §2, §3, §4

Test [4] has as its system genotype 1a (H77) wild type transient HCV replicon in Huh-7-derived cells. In words: Transient-transfected HCV replicon EC50, genotype 1a wild type. To be noted: Hepatitis C virus, 72 h, read-out: EC50 1A WT.
The subject of test [5] is genotype 3a (S52) stable HCV replicon in Huh-7-derived cells. In words: Stable subgenomic HCV replicon EC50, genotype 3a (Renilla luciferase). To be noted: Hepatitis C virus, 72 h, read-out: EC50 3A RLUC. As to the method: as §1, §2, §3, §4
The test system of test [6] is genotype 2a (JFH-1) stable HCV replicon in Huh-7-derived cells. Description: Stable subgenomic HCV replicon EC50, genotype 2a (Renilla luciferase). Particulars: Hepatitis C virus, stable replicon genotype 2a, 72 h, read-out: EC50 2A RLUC. The procedure: as §1, §2, §3, §4
Test [7] relates to genotype 1b (Con1) wild type transient HCV replicon in Huh-7-derived cells. In words: Transient-transfected HCV replicon EC50, genotype 1b wild type. To be noted: Hepatitis C virus, 72 h, read-out: EC50 1B WT.
In test [8] the test system is genotype 4a (ED43) stable HCV replicon in Huh-7-derived cells. In words: Stable subgenomic HCV replicon EC50, genotype 4a (Renilla luciferase). Particulars: Hepatitis C virus, 72 h, read-out: EC50 4A RLUC. The procedure:
as §1, §2, §3, §4

Test [9] concerns genotype 1b NS3/4a protease inhibitor resistant variant D168A transient HCV replicon in Huh-7-derived cells. Description: Transient-transfected HCV replicon EC50, genotype 1b D168A. To be noted: Hepatitis C virus, 72 h, read-out: EC50 1B D168A, transient-transfected replicon genotype 1b D168A resistant variant, 72 h.
Where [10] appears, read: transient-transfected replicon genotype 1a wild type.
Setting [11] is: transient-transfected replicon genotype 1b wild type.

One may read the EC50 as the concentration at which the effect is half-maximal. For `COc1ccc2nc3c(nc2c1)O[C@H]1CN(C(=O)[C@H](C(C)(C)C)NC(=O)O[C@@]2(C)C[C@@H]2CCCCC3)[C@H](C(=O)N[C@]2(C(=O)NS(=O)(=O)C3(C)CC3)C[C@H]2C(F)F)[C@@H]1C` [Example 45, (1aS,5S,8S,9S,10R,22aS)-5-tert-butyl-N-[(1R,2R)-2-(difluoromethyl)-1-{[(1-methylcyclopropyl)sulfonyl]carbamoyl}cyclopropyl]-14-methoxy-1a,9-dimethyl-3,6-dioxo-1,1a,3,4,5,6,9,10,18,19,20,21,22,22a-tetradecahydro-8H-7,10-methanocyclopropa[18,19][1,10,3,6]dioxadiazacyclononadecino[11,12-b]quinoxaline-8-carboxamide], the EC50 in test [1] amounted to 35 nM; in test [2], 8.3 nM; in [3] it was 21 nM; in [4] (setting [10]) it was 13 nM; in test [5] it was 549 nM; in test [6], 24 nM. Also, the figures for the EC50 in [7] (setting [11]), in [8] and in test [9] were 5.3 nM, 13 nM and 88 nM, respectively.
As to `COc1ccc2nc3c(nc2c1)O[C@H]1CN(C(=O)[C@H](C(C)(C)C)NC(=O)O[C@@H]2C[C@H]2CCCCC3)[C@H](C(=O)N[C@]2(C(=O)NS(=O)(=O)C3CC3)C[C@H]2CC(F)F)[C@@H]1C` [Example 24, (1aR,5S,8S,9S,10R,22aR)-5-tert-butyl-N-[(1R,2S)-1-[(cyclopropylsulfonoyl)carbamoyl]-2-(2,2-difluoroethyl)cyclopropyl]-14-methoxy-9-methyl-3,6-dioxo-1,1a,3,4,5,6,9,10,18,19,20,21,22,22a-tetradecahydro-8H-7,10-methanocyclopropa[18,19][1,10,3,6]dioxadiazacyclononadecino[11,12-b]quinoxaline-8-carboxamide], the half-maximal effective concentration (EC50) in test [1] is 49 nM; in test [2], 7.5 nM; in [3] it was 12 nM; in [4] (setting [10]) it was 9.3 nM; in test [5] it was 663 nM; in test [6] it was 20 nM. Further, the concentration for a half-maximal effect (EC50) amounted to 3.2 nM in test [7] (setting [11]), 9.2 nM in [8] and 284 nM in test [9].
`CC[C@@H]1C[C@]1(NC(=O)[C@@H]1[C@H](C)[C@@H]2CN1C(=O)[C@H](C(C)(C)C)NC(=O)O[C@@H]1C[C@H]1CCCCCc1nc3ccc(OC)cc3nc1O2)C(=O)NS(=O)(=O)C1(C)CC1` [Example 21, (1aR,5S,8S,9S,10R,22aR)-5-tert-butyl-N-[(1R,2R)-2-ethyl-1-{[(1-methylcyclopropyl)sulfonyl]carbamoyl}cyclopropyl]-14-methoxy-9-methyl-3,6-dioxo-1,1a,3,4,5,6,9,10,18,19,20,21,22,22a-tetradecahydro-8H-7,10-methanocyclopropa[18,19][1,10,3,6]dioxadiazacyclononadecino[11,12-b]quinoxaline-8-carboxamide]: the 50% effective concentration (EC50) in [1] turned out to be 15 nM; in test [2], 4.7 nM; in test [3], 6.8 nM; in [4] it was 4.1 nM; in [5] it was 263 nM; in test [6], 12 nM. Further, the EC50 was found to be 3.8 nM in test [7], 6.2 nM in test [8] and 70 nM in test [9].
Turning to `CC[C@@H]1[C@@H]2CN(C(=O)[C@H](C3CCCC3)NC(=O)O[C@@H]3C[C@H]3CCCCCc3nc4ccc(OC)cc4nc3O2)[C@@H]1C(=O)N[C@]1(C(=O)NS(=O)(=O)C2CC2)C[C@H]1C(F)F` [Example 15, (1aR,5S,8S,9S,10R,22aR)-5-cyclopentyl-N-[(1R,2R)-1-[(cyclopropylsulfonyl)carbamoyl]-2-(difluoromethyl)cyclopropyl]-9-ethyl-14-methoxy-3,6-dioxo-1,1a,3,4,5,6,9,10,18,19,20,21,22,22a-tetradecahydro-8H-7,10-methanocyclopropa[18,19][1,10,3,6]dioxadiazacyclononadecino[11,12-b]quinoxaline-8-carboxamide], the EC50 in [1] was 20 nM; in [2], 6.8 nM; in [3], 11 nM; in test [4], 6.5 nM; in test [5] it was 550 nM; in test [6] it was 9.8 nM. Also, the values for the EC50 in test [7], in [8] and in [9] were 3 nM, 7.8 nM and 182 nM, respectively.
For the molecule `CC[C@@H]1[C@@H]2CN(C(=O)[C@H](C(C)(C)C)NC(=O)O[C@@]3(C)C[C@@H]3CCCCCc3nc4ccc(OC)cc4nc3O2)[C@@H]1C(=O)N[C@]1(C(=O)NS(=O)(=O)C2(C)CC2)C[C@H]1C(F)F` [Example 8, (1aS,5S,8S,9S,10R,22aS)-5-tert-butyl-N-[(1R,2R)-2-(difluoromethyl)-1-{[(1-methylcyclopropyl)sulfonyl]carbamoyl}cyclopropyl]-9-ethyl-14-methoxy-1a-methyl-3,6-dioxo-1,1a,3,4,5,6,9,10,18,19,20,21,22,22a-tetradecahydro-8H-7,10-methanocyclopropa[18,19][1,10,3,6] dioxadiazacyclononadecino[11,12-b]quinoxaline-8-carboxamide], the concentration for a half-maximal effect (EC50) amounted to 28 nM in test [1]; 8.6 nM in test [2]; 16 nM in [3]; 8.8 nM in [4] (setting [10]); 465 nM in test [5]; 20 nM in test [6]. The results for the EC50 in test [7] (setting [11]), in test [8] and in [9] were 4.8 nM, 13 nM and 89 nM, respectively.
In the case of `COc1ccc2nc3c(nc2c1)O[C@H]1CN(C(=O)[C@H](C(C)(C)C)NC(=O)O[C@@H]2C[C@H]2CCCCC3)[C@H](C(=O)N[C@]2(C(=O)NS(=O)(=O)C3(C)CC3)C[C@H]2CC(F)F)[C@@H]1C` [Example 25, (1aR,5S,8S,9S,10R,22aR)-5-tert-butyl-N-[(1R,2S)-2-(2,2-difluoroethyl)-1-{[(1-methylcyclopropyl)sulfonyl]carbamoyl}cyclopropyl]-14-methoxy-9-methyl-3,6-dioxo-1,1a,3,4,5,6,9,10,18,19,20,21,22,22a-tetradecahydro-8H-7,10-methanocyclopropa[18,19][1,10,3,6]dioxadiazacyclononadecino[11,12-b]quinoxaline-8-carboxamide], the EC50 was determined as 17 nM in test [1]; 6.3 nM in [2]; 8.8 nM in test [3]; 4.4 nM in test [4] (setting [10]); 409 nM in test [5]; 13 nM in test [6]. In addition, the EC50 in [7] (setting [11]) was 3.6 nM; in [8], 7.1 nM; in test [9], 116 nM.
With `CC[C@@H]1[C@@H]2CN(C(=O)[C@H](C(C)(C)C)NC(=O)O[C@@H]3CCC[C@H]3CCCCCc3nc4ccc(OC)cc4nc3O2)[C@@H]1C(=O)N[C@]1(C(=O)NS(=O)(=O)C2(C)CC2)C[C@H]1C(F)F` [Example 6, (3aR,7S,10S,11S,12R,24aR)-7-tert-butyl-N-[(1R,2R)-2-(difluoromethyl)-1-{[(1-methylcyclopropyl)sulfonyl]carbamoyl}cyclopropyl]-11-ethyl-16-methoxy-5,8-dioxo-1,2,3,3a,5,6,7,8,11,12,20,21,22,23,24,24a-hexadecahydro-10H-9,12-methanocyclopenta[18,19][1,10,3,6] dioxadiazacyclononadecino[11,12-b]quinoxaline-10-carboxamide], the EC50 in [1] came out at 58 nM; in test [2] it was 36 nM; in test [3], 35 nM; in test [4] (setting [10]), 26 nM; in test [5] it was 1360 nM; in test [6] it was 34 nM. Further, the values for the half-maximal effective concentration (EC50) in test [7] (setting [11]), in [8] and in test [9] were 11 nM, 34 nM and 216 nM, respectively.
